The values that follow come from US5686492A, “Disubstituted p-fluorobenzenesulfonamides” (Schering Aktiengesellschaft, priority 1994, dated 1997).

A short description of data set [1]: 19F NMR line width / signal intensity of the measuring fluorine atom. The data set is classed as physicochemical. To be noted: in comparison to prior art compound (compound of Example 2 with Y meaning hydrogen); for line width smaller by: signal of the measuring fluorine atom. The source says:
In comparison to the structurally closest compounds of the prior art, the compounds according to the invention show clearly thinner signals for the measuring fluorine atom, so that an identically intensive signal is obtained with a smaller dosage.

Data set [2] in a line: compatibility in comparison to structurally closest previously-known compound. The data set is classed as in vivo. To be noted: than structurally closest previously-known compound (compound of Example 2 with Y meaning hydrogen). The source says:
(§1) An equally high (undesirable) histamine release is observed with the compound of Example 2 only with the 30-fold dosage of the above-mentioned previously-known comparison substance.

The subject of data set [3] is histamine release. The experiment in a line: histamine release in comparison to structurally closest previously-known compound. The data set is classed as in vivo. To be noted: multiple of the dosage of the previously-known comparison substance (compound of Example 2 with Y meaning hydrogen).
Source text: as §1

As for `O=C(Cc1cc(NS(=O)(=O)CC(F)(F)F)cc(CC(=O)NC(CO)C(O)CO)c1F)NC(CO)C(O)CO` (centres unmarked) [Example 6], in data set [1], the signal increase is approximately 50% and the “line width smaller by” value is 25%.
With `O=C(O)CCS(=O)(=O)Nc1ccc(F)c(CC(=O)NC(CO)C(O)CO)c1C(F)(F)F` (centres unmarked) [Example 2, 3-{N-[4-Fluoro-2-trifluoromethylphenyl-3-acetic acid-N-(1-hydroxy-2,3-dihydroxypropyl)-amide]-sulfamoyl}-propionic acid], the “compatibility higher by” value in data set [2] is 50%. Besides, in data set [3], the “dosage giving equally high (undesirable) histamine release” value is 30 -fold. Besides, in data set [1], the “line width smaller by” value is listed as 12%.
